Type in all cases: biochemical
Assay [1] addresses T1, 382 unique human kinases (Homo sapiens, UniProt Q9BQI3).
T1 construct: purchased Reaction Biology (HotSpot contract assay)
Nature of the assay: biochemical. The conditions noted are these: EIF2AK1; read-out: Control Compound IC50*.

Assay [2] deals with T2, 382 unique human kinases (Homo sapiens, UniProt Q16654).
T2 construct: purchased Reaction Biology (HotSpot contract assay)
As to the kind of experiment: biochemical. The conditions noted are these: PDK4/PDKH4; [ATP] 30 µM; read-out: Control Compound IC50*.

The target in assay [3] is T3, 382 unique human kinases (Homo sapiens, UniProt P10398).
T3 construct: purchased Reaction Biology (HotSpot contract assay)
T3 sequence (P10398 1-606): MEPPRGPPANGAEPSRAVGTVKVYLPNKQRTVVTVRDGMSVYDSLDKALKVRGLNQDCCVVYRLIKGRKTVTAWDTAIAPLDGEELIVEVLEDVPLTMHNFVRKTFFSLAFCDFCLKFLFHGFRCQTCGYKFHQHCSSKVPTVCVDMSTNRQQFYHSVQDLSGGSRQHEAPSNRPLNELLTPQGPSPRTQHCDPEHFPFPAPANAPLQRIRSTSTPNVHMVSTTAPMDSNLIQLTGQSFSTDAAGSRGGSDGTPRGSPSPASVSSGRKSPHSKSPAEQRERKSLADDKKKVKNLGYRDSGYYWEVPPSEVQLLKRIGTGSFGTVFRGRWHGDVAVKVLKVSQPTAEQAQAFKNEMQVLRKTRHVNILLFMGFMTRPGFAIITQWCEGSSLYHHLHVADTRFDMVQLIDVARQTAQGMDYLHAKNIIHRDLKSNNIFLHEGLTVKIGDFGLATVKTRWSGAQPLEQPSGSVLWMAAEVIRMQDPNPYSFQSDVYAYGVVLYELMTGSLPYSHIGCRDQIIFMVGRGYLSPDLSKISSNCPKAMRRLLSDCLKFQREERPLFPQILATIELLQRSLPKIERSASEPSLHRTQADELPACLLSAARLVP
Nature of the assay: biochemical. The conditions noted are these: ARAF; read-out: Control Compound IC50*.

Assay [4] has as its target T4, 382 unique human kinases (Homo sapiens, UniProt Q15120).
T4 construct: purchased Reaction Biology (HotSpot contract assay)
Nature of the assay: biochemical. The conditions noted are these: PDK3/PDHK3; [ATP] 30 µM; read-out: Control Compound IC50*.

For assay [5], the system named is 382 unique human kinases. Nature of the assay: biochemical. The conditions noted are these: read-out: Control Compound IC50*.
The target in assay [6] is T5, 382 unique human kinases (Homo sapiens, UniProt Q9NYL2).
T5 construct: purchased Reaction Biology (HotSpot contract assay)
As to the kind of experiment: biochemical. The conditions noted are these: ZAK/MLTK; [ATP] 50 µM; read-out: Control Compound IC50*.

Assay [7] concerns the target T6, 382 unique human kinases (Homo sapiens, UniProt Q15119).
T6 construct: purchased Reaction Biology (HotSpot contract assay)
As to the kind of experiment: biochemical. The conditions noted are these: PDK2/PDHK2; [ATP] 15 µM; read-out: Control Compound IC50*.

The target of assay [8] is T7, 382 unique human kinases (Homo sapiens, UniProt Q9NR20).
T7 construct: purchased Reaction Biology (HotSpot contract assay)
T7 sequence (Q9NR20 1-520): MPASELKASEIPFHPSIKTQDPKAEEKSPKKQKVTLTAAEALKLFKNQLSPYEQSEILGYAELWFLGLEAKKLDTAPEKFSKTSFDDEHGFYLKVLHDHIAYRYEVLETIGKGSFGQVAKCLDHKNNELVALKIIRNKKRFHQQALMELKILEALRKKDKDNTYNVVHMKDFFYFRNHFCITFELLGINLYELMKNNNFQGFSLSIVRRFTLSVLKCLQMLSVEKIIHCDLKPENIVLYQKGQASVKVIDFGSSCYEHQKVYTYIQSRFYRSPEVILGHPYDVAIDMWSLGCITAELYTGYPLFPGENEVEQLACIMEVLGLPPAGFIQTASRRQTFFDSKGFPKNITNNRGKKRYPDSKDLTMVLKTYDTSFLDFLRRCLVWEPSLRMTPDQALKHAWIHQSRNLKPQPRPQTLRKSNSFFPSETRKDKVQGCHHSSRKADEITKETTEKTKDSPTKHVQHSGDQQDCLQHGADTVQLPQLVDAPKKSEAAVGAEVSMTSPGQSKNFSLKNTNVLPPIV
As to the kind of experiment: biochemical. The conditions noted are these: DYRK4; read-out: Control Compound IC50*.

For assay [9], the target named is T8, 382 unique human kinases (Homo sapiens, UniProt Q9Y572).
T8 construct: purchased Reaction Biology (HotSpot contract assay)
Nature of the assay: biochemical. The conditions noted are these: RIPK3; [ATP] 2.5 µM; read-out: Control Compound IC50*.

In assay [10] the target is T9, 382 unique human kinases (Homo sapiens, UniProt P68400).
T9 construct: purchased Reaction Biology (HotSpot contract assay)
As to the kind of experiment: biochemical. The conditions noted are these: CK2a; read-out: Control Compound IC50*.

Assay [11] has as its target T10, 382 unique human kinases (Homo sapiens, UniProt Q15118).
T10 construct: purchased Reaction Biology (HotSpot contract assay)
As to the kind of experiment: biochemical. The conditions noted are these: PDK1/PDHK1; [ATP] 50 µM; read-out: Control Compound IC50*.

In a further assay the target is T11, PDK4/PDKH4 (Homo sapiens, UniProt Q16654).
T11 construct: purchased Reaction Biology (HotSpot contract assay)
As to the kind of experiment: HotSpot in vitro kinase radiometric assay. The conditions noted are these: PDK4/PDKH4; ATP 30 uM; read-out: IC50 (M) Control Cmpd. The procedure: (§1) Accordingly, we selected five additional representative HSP90 inhibitors, at least one from each chemical class, including both synthetic inhibitors and natural products. […]
(§2) This radioisotope binding assay was designed to directly detect the true product without the use of modified substrates, coupling enzymes, or detection antibodies thus enabling to directly measure inhibition of catalytic activity. Test or control compounds were incubated with kinase, substrate, cofactors, and radioisotope-labeled ATP (32P-ɣ-ATP or 33P-ɣ-ATP). The reaction mixtures were then spotted onto filter papers, which bind the radioisotope-labeled catalytic product.

The target of another assay is T12, PDK2/PDHK2 (Homo sapiens, UniProt Q15119).
T12 construct: purchased Reaction Biology (HotSpot contract assay)
As to the kind of experiment: HotSpot in vitro kinase radiometric assay. The conditions noted are these: PDK2/PDHK2; ATP 15 uM; read-out: IC50 (M) Control Cmpd. How it is done: as §1, §2

For assay [12], the target named is T13, 382 unique human kinases (Homo sapiens, UniProt Q9HC98).
T13 construct: purchased Reaction Biology (HotSpot contract assay)
Nature of the assay: biochemical. The conditions noted are these: NEK6; read-out: Control Compound IC50*.

Assay [13] concerns the target T14, 382 unique human kinases (Homo sapiens, UniProt Q8TDX7).
T14 construct: purchased Reaction Biology (HotSpot contract assay)
As to the kind of experiment: biochemical. The conditions noted are these: NEK7; read-out: Control Compound IC50*.

The target in assay [14] is T15, 382 unique human kinases (Homo sapiens, UniProt Q6IQ55).
T15 construct: purchased Reaction Biology (HotSpot contract assay)
As to the kind of experiment: biochemical. The conditions noted are these: TTBK2; read-out: Control Compound IC50*.

Assay [15] concerns the target T16, 382 unique human kinases (Homo sapiens, UniProt Q86Y07).
T16 construct: purchased Reaction Biology (HotSpot contract assay)
As to the kind of experiment: biochemical. The conditions noted are these: kinase VRK2; read-out: Control Compound IC50*.

In assay [16] the target is T17, 382 unique human kinases (Homo sapiens, UniProt Q86Z02).
T17 construct: purchased Reaction Biology (HotSpot contract assay)
Nature of the assay: biochemical. The conditions noted are these: HIPK1; read-out: Control Compound IC50*.

The target in assay [17] is T18, 382 unique human kinases (Homo sapiens, UniProt Q99986).
T18 construct: purchased Reaction Biology (HotSpot contract assay)
T18 sequence (Q99986 1-396): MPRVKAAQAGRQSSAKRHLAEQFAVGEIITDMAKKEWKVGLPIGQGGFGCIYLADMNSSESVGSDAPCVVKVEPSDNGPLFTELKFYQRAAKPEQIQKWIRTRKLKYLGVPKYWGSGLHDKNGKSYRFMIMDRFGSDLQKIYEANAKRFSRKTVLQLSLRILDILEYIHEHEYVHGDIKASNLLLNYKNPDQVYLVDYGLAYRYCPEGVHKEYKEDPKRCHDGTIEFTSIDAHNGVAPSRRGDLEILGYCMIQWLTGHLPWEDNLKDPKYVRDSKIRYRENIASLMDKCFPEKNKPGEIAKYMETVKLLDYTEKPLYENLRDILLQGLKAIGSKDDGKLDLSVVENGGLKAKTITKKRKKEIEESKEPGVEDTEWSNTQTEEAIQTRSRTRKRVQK
As to the kind of experiment: biochemical. The conditions noted are these: VRK1; read-out: Control Compound IC50*.

Assay [18] concerns the target T19, 382 unique human kinases (Homo sapiens, UniProt P41279).
T19 construct: purchased Reaction Biology (HotSpot contract assay)
Nature of the assay: biochemical. The conditions noted are these: COT1/MAP3K8; read-out: Control Compound IC50*.

Assay [19] has as its target T20, 382 unique human kinases (Homo sapiens, UniProt Q92918).
T20 construct: purchased Reaction Biology (HotSpot contract assay)
As to the kind of experiment: biochemical. The conditions noted are these: kinase HPK1/MAP4K1; read-out: Control Compound IC50*.

Like-named read-outs stand apart in the source and are kept apart here.

T17 sequence (Q86Z02 whole entry): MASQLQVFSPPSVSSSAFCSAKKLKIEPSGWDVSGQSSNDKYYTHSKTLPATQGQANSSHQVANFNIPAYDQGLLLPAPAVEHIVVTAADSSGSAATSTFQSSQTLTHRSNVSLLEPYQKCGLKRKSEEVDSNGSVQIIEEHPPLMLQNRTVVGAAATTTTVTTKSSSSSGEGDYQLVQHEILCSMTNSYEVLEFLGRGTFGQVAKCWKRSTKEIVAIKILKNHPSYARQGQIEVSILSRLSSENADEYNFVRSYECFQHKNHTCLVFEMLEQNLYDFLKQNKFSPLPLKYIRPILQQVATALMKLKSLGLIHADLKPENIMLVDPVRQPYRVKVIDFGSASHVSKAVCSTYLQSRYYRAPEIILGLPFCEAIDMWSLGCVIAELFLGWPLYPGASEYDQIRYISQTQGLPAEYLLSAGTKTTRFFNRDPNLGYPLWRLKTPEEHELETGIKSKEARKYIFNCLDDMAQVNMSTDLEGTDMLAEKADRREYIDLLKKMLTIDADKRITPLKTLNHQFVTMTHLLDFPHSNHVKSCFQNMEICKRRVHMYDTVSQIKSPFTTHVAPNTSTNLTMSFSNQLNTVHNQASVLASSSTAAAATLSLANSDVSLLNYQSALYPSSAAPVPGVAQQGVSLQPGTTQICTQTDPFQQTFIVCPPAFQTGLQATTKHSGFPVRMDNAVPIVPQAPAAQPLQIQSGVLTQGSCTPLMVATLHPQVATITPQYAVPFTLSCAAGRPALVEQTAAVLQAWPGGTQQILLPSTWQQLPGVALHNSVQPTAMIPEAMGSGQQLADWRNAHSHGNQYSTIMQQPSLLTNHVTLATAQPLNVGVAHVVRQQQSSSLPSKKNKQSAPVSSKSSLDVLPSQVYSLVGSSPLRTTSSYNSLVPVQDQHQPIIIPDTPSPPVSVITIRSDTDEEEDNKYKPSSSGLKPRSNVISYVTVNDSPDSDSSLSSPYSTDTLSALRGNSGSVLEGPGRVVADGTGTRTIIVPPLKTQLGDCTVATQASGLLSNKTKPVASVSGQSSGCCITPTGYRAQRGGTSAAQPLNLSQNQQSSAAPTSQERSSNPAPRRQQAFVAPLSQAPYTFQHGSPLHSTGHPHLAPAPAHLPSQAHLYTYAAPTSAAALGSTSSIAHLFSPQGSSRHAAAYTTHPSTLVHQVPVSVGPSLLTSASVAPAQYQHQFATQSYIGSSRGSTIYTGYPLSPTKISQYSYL
T1 sequence (Q9BQI3 whole entry): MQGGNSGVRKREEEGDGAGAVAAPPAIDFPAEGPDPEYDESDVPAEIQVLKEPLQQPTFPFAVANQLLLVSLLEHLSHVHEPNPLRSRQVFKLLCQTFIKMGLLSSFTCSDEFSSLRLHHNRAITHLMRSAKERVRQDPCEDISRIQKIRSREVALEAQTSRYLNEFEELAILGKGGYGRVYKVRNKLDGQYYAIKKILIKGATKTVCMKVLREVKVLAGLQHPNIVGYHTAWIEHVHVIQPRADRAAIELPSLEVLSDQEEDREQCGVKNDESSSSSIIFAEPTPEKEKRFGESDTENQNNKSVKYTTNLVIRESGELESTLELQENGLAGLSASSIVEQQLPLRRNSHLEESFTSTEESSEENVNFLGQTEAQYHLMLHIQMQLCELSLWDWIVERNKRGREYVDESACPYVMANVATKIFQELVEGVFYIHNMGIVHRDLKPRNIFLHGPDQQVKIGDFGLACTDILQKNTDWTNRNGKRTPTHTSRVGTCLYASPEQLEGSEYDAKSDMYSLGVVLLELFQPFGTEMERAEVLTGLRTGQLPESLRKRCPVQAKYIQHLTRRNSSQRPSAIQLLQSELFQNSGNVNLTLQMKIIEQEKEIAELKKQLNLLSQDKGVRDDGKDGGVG
T10 sequence (Q15118 29-436): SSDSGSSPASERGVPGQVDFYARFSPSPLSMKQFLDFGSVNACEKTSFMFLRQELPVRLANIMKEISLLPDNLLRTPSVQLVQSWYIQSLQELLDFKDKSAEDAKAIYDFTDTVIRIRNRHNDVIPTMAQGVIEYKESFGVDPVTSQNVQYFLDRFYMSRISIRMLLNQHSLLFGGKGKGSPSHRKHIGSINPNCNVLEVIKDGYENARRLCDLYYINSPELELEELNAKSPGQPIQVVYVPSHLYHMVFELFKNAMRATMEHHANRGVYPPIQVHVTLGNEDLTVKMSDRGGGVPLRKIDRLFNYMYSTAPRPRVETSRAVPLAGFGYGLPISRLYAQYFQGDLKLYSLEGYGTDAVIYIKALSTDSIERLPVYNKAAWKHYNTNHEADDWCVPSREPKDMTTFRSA
T15 sequence (Q6IQ55 whole entry): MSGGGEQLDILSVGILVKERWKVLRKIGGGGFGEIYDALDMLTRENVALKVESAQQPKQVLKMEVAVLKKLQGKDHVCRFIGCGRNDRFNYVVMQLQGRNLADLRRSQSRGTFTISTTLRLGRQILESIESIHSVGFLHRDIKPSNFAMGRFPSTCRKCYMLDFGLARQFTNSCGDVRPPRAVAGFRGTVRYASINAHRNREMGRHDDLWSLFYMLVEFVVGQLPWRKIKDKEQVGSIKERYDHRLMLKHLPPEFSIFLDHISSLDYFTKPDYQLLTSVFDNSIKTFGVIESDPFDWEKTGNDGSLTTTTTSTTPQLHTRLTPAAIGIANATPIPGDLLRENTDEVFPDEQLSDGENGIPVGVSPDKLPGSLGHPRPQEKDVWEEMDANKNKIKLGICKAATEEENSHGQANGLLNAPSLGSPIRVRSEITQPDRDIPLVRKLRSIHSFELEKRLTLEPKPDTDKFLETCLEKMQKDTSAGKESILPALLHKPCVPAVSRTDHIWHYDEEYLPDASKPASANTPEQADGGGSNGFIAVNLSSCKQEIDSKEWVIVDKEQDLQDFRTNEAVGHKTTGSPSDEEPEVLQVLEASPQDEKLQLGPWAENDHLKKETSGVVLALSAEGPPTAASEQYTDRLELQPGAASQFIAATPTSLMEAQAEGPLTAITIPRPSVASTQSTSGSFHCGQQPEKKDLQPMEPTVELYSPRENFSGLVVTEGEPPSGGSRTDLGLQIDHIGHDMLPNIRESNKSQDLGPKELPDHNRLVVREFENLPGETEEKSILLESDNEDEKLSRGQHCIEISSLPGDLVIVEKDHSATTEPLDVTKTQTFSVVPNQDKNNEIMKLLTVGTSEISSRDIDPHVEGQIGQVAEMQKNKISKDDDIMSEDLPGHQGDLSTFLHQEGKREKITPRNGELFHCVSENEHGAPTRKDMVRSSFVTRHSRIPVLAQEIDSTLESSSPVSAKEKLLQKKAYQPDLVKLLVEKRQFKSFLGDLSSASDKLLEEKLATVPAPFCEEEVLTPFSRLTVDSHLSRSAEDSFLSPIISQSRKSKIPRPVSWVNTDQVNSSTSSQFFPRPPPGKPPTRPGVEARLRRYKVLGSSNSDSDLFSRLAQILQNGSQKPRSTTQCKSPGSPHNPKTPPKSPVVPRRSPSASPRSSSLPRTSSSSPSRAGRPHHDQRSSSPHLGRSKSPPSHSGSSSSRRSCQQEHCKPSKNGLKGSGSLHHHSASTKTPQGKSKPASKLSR
T16 sequence (Q86Y07 whole entry): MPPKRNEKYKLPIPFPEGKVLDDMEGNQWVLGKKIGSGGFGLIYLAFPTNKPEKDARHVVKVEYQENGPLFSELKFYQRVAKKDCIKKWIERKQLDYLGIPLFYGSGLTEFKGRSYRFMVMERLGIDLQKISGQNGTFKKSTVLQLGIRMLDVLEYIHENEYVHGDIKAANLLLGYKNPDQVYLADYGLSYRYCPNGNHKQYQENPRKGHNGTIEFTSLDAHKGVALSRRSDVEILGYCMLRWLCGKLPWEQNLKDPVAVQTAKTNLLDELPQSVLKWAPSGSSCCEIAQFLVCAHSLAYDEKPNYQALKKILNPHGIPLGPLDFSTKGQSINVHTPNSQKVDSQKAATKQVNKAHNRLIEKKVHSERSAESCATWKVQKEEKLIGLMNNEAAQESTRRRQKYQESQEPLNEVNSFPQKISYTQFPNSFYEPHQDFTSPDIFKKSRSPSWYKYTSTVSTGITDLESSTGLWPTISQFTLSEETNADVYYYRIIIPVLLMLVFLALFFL
T2 sequence (Q16654 whole entry): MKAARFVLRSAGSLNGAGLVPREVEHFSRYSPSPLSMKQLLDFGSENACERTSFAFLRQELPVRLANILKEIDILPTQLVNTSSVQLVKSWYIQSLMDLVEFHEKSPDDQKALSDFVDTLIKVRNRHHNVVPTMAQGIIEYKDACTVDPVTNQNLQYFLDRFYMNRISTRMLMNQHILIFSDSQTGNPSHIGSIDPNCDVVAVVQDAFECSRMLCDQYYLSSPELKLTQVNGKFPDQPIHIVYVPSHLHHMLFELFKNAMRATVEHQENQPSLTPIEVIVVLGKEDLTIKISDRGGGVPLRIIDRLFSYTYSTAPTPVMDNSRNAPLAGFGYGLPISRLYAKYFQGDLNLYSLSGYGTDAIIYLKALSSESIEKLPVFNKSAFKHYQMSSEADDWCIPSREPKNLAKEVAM
T11 sequence (Q16654 whole entry): as above

In general, IC50 refers to the concentration that inhibits the measured activity by half. As to `Cn1cc(-c2ccc3c(c2)CCN3C(=O)Cc2cccc(C(F)(F)F)c2)c2c(N)ncnc21` [GSK-2606414], the IC50 on 382 unique human kinases [1] turned out to be 0.0921 µM.
`O=C1Nc2ccc(I)cc2/C1=C/c1cc(Br)c(O)c(Br)c1` [GW5074]: the IC50 was 1.72 µM at 382 unique human kinases [2]; 0.014 µM on 382 unique human kinases [3]; 12.1 µM on 382 unique human kinases [4]; […] with 382 unique human kinases [5] (BRAF (R506_K507insVLR)); […] in the assay on 382 unique human kinases [5] (BRAF (T599_V600insT)); […] in the assay on 382 unique human kinases [5] (BRAF (d485-489/P490Y)). The IC50 came to […] in the assay on 382 unique human kinases [5] (BRAF-FAM131B (Fex2Bex9)); […] in the assay with 382 unique human kinases [5] (BRAF-KIAA1549 (Kex15Bex9)); […] in the assay with 382 unique human kinases [5] (BRAF-KIAA1549 (Kex16Bex9)); […] with 382 unique human kinases [5] (BRAF-SRGAP3 (Sex12Bex9)); 2.62 µM on 382 unique human kinases [6]; 6.61 µM on 382 unique human kinases [7]. Further, the IC50 on 382 unique human kinases [8] was determined as 1.88 µM; at 382 unique human kinases [9] it was 1.06 µM; at 382 unique human kinases [10], 0.398 µM; at 382 unique human kinases [11], 32.2 µM; at PDK4/PDKH4, 2.51e-06 M; on PDK2/PDHK2, 6.39e-06 M.
As for `O=C1Nc2ccc3ncsc3c2/C1=C/c1cnc[nH]1` [PKR Inhibitor], the IC50 amounted to 35.5 µM at 382 unique human kinases [12] and 12.4 µM on 382 unique human kinases [13].
For the compound `Oc1ccc(-c2nc(-c3ccncc3)c(-c3ccc(F)cc3)[nH]2)cc1` [SB202190], the IC50 at 382 unique human kinases [14] amounted to 9.41 µM.
Take Ro-31-8220: the IC50 is 9.05 µM at 382 unique human kinases [15]; 0.8 µM at 382 unique human kinases [16]; 0.528 µM on 382 unique human kinases [17]; 7.83 µM at 382 unique human kinases [18]; 0.0443 µM on 382 unique human kinases [19].

The record behind these values is paper PMC8550792, “Evolution of kinase polypharmacology across HSP90 drug discovery” (Cell Chemical Biology, 2021).
